In the assay the test system is Escherichia coli ATCC-25922, Klebsiella pneumonia ATCC-4352, Canadida albicans ATCC-10231, Pseudomonas aeruginosa ATCC-9027, Staphylococcus aureus ATCC-6538. The assay is described as follows: Lawn-spray assay of AM635 disinfectant spray in SDS (Example 5). It counts as cell-based. As to conditions: portions of the untreated area were also clear of bacterial growth. The method, then:
The efficacy of 0.5-2% SDS solutions (in DiH2O)+0.1-10% Silver 1-Methyl imidazole were tested by performing a lawn-spray assay. The Silver 1-Methylimidazole Complex 635 (AM635) disinfectant sprays in SDS were prepared as described in Example 4. Briefly, a lawn of bacteria/yeast from a newly grown broth culture were inoculated onto their preferred agar media by dipping a swab into each broth, fully wetting the swab end, then swiping the swab back-and-forth from the top to the bottom of the plate, then turning the plate for a ¼ turn and re-streaking from top to bottom again. This technique ensures for total coverage of the inoculating bacteria/yeast across the face of the agar media. The dish was then opened and a paper towel placed over the top of the plate to cover only half of the surface while not touching the agar surface, so that the other half is exposed to the air. This exposed half was then treated with 2-pumps from a spray bottle containing the AM635 in SDS composition, ensuring that the exposed half of the plate was saturated by the test product. Each plate was treated using the same 2-pump criteria. All plates were then incubated “agar-down” overnight at 37° C. to allow the bacteria to fully grow (at 30° C. for yeast). […]

With `CCCCCCCCCCCCOS(=O)(=O)[O-].[Na+]` [SDS, Sodium Dodecyl Sulfate], the “effect on untreated area of lawn plate” value is “hypermigration effect”.

Source of the values: patent publication US20230284627A1, “ANTIMICROBIAL COMPOSITIONS AND METHODS OF USE AND FOR MAKING SAME” (MIG USA, LLC, priority 2020, published 2023).
